Test results taken from paper PMC10900488, “Synthesis and Evaluation of (Bis)benzyltetrahydroisoquinoline Alkaloids as Antiparasitic Agents” (JACS Au, 2024).

What was measured:
T. cruzi amastigotes = assay: Antiamastigote assay (T. cruzi), ex vivo intracellular model using mice macrophages, microscopy; assay type: cell-based, Trypanosoma (T.) cruzi; details: Trypanosoma cruzi, Peritoneal macrophage, 48 h, ± SD, read-out: T. cruzi IC50 amastigotes
Method: T. cruzi also assumes several cell morphologies during its lifecycle, which differ between the insect vector and mammalian host. In the latter environment, the parasite transitions between extracellular bloodstream trypomastigotes and intracellular amastigotes; both forms are clinically relevant, particularly during the acute stage of Chagas disease.[34] In this work, antitrypanosomal activity was tested against both the amastigote form (evaluated microscopically using an ex vivo intracellular model using mice macrophages) and the trypomastigote form (using the resazurin in vitro assay).[33],[35] […] In silico predictions of pharmacokinetic profiles were carried out using the SwissADME webtool (see the Supporting Information for details).[36] […]
[…] Cultivation was performed in 2% fetal calf serum supplemented RPMI-1640 medium.
The trypomastigotes were maintained in a humidified incubator at 37 °C and with 5% CO2. […]
Peritoneal macrophages were obtained via washing the peritoneal cavity of BALB/c mice with 10% foetal calf serum supplemented RPMI-1640 medium (pH 7.2). The macrophages were maintained in a humidified incubator at 37 °C and with 5% CO2.
Biological activity assays […]
Peritoneal macrophages (1 × 10^5 cells/well) obtained from the peritoneal cavity of BALB/C mice were added to 16-well chambers (NUNC, Thermo Fischer Scientific). The cells were infected with trypomastigotes (10:1 parasites/macrophage) for 2 h. Then treatment of the infected macrophages with selected compounds (serially diluted 1.2 to 100 μM) was performed in a humidified incubator for 48 h at 37 °C and with 5% CO2. The treated cells were fixed on slides using methanol, stained with Giemsa and observed under a light microscope (EVOS M5000, Thermo, USA) with digital image equipment. The infection index was used in order to determine the half inhibitory concentration (IC50) (no. infected macrophages × no. amastigotes / total no.

mNG::RAD51 promastigotes = assay: mNG::RAD51 nuclear foci studies; assay type: cell-based, Leishmania (L.) mexicana; details: 50 μM, up to 24 h
Source text: DSBs often lead to cytotoxicity, which could be an explanation for the observed compound activity.[44]−[46]Leishmania employ the RAD51 DNA recombinase protein as part of its DNA repair machinery to fix naturally occurring nuclear DSBs via homologous recombination.[47]−[50] Using a CRISPR/Cas9 gene editing strategy,[51] we generated a genetically modified cell line with mNeonGreen tagged RAD51. This would allow observation of fluorescent RAD51 protein recruitment to foci in the nucleus corresponding to DSB accumulation, as has been shown in T. brucei.[52],[53] Phleomycin was used as a positive control to induce DSBs,[54] which led to the expected observation of accumulation of RAD51 as green dots in the nucleus in 80% of cells from as early as 2 h posttreatment (Figure 2D). […] We can therefore conclude that the BI compounds tested are unlikely to act via DSBs (albeit this methodology is sensitive only to DSBs in nuclear DNA), and another mechanism of cell cycle disruption is responsible for the breakdown in the healthy cell cycle.
(§1) NCTC cells (6 × 10^4/well) were added to a 96-well plate. Treatments of the cells with selected compounds (serially diluted 1.5 to 200 μM) was performed in a humidified incubator for 96 h at 37 °C and with 5% CO2.
(§2) The MTT colorimetric method was used to determine the 50% cytotoxic concentration (CC50) and the selectivity index (CC50 against NCTC cells/IC50 against amastigotes).15 […]
(§3) […] […] Statistical significance was derived from a two-tailed T-test.
(§4) The Graph Pad Prism 5 software was used to perform sigmoid dose-response curves for the determination of […]
[…] At 6 h and 24 h post-treatment, a 1 mL aliquot was taken for imaging. The cell cycle experiment was preformed twice independently.
Generation of mNG::RAD51 tagged cell line
The single-stranded DNA-binding protein RAD51, associated with DNA Repair, LmxM.28.0550 was tagged with endogenous fluorescent protein mNeonGreen (mNG) at the N-terminus. […]
Primers for constructs and sgRNA were designed using LeishGEdit (http://www.leishGEdit.net). […]

[1] = test system: L. mexicana promastigotes; assay: Cell cycle studies (K/N counts); assay type: cell-based, Leishmania (L.) mexicana; details: 50 μM, 6 and 24 h
Method: To investigate whether the morphological changes are a consequence of cell cycle interference, we analyzed the cell cycle over a 24 h period. Untreated L. mexicana promastigotes typically have a doubling time of 7.1 h, with each of the DNA-containing organelles replicating once in the order […], before cytokinesis, leading to two daughter cells.[37],[38] […] Cells treated with (S)-9a at 50 μM were studied after 6 and 24 h of treatment, and found to deviate from the typical cell cycle, giving rise to abnormal categories of cells with incorrectly replicated organelles (Figure 2C). For around 15% of the cells in 1K1N there was the presence of an eXtra structure (1K1N1X) that could not be clearly assigned as K or N, generally toward the posterior end of the cell body.
as §1, §2, §3, §4

## COc1cc2c(cc1OC)[C@H](Cc1ccc(OC)c(OCc3ccccc3)c1)N(C)CC2 [(S)-9b]
T. cruzi amastigotes
  IC50: 12.2 ± 0.5 µM
mNG::RAD51 promastigotes
  RAD51 nuclear foci: no RAD51 nuclear foci

## COc1cc2c(cc1OC)[C@@H](Cc1ccc(Oc3cc(C[C@H]4c5cc(OC)c(OC)cc5CCN4C)ccc3OC)cc1)N(C)CC2 [(S,R)-11, (−)-O,O′-dimethylgrisabine]
T. cruzi amastigotes
  IC50: 2.2 ± 0.7 µM

## COc1cc2c(cc1OC)[C@H](Cc1ccc(Br)cc1)N(C)CC2 [(S)-9a]
T. cruzi amastigotes
  IC50: 25.1 ± 3.1 µM
[1]
  cells in 1K1N with an extra structure (1K1N1X): around 15%
[1]; versus the expected 10%
  proportion of cells in the dividing stages (Non-1K1N): doubled
mNG::RAD51 promastigotes
  RAD51 nuclear foci: no RAD51 nuclear foci
